Consider eight compounds from ChEMBL document CHEMBL1151027, “Inhibition of human immunodeficiency virus-1 protease by a C2-symmetrical phosphinic acid amide” (Bioorg Med Chem Lett, 1994).

What is called EC50 is the concentration that produces a half-maximal response. Read a low EC50 as greater potency. Usually IC50 stands for the concentration needed to halve the response being measured. A lower IC50 goes with higher potency.

Assay [1] in a line: (§1) Effective concentration required to inhibit HIV replication in peripheral blood mononuclear cells (PBL). The class given is functional, Homo sapiens.
Assay [2] addresses Human immunodeficiency virus type 1 protease (Human immunodeficiency virus 1, UniProt Q72874). The assay is described as follows: Inhibitory activity if the compound was determined against HIV protease.
The nature of assay [3]: as §1. It counts as functional. Conditions: Homo sapiens.

In turn, `COP(=O)(CNC(=O)[C@@H](NC(=O)[C@H](Cc1cccc2ccccc12)CS(=O)(=O)C(C)(C)C)C(C)C)CNC(=O)[C@@H](NC(=O)[C@H](Cc1cccc2ccccc12)CS(=O)(=O)C(C)(C)C)C(C)C` came in with an EC50 in assay [1] (Homo sapiens) above 10000 nM. This compound also showed an IC50 in assay [2] of 950 nM.
Turning to `CC(C)[C@H](NC(=O)[C@H](Cc1cccc2ccccc12)CS(=O)(=O)C(C)(C)C)C(=O)N[C@H](Cc1ccccc1)P(=O)(O)[C@@H](Cc1ccccc1)NC(=O)[C@@H](NC(=O)[C@H](Cc1cccc2ccccc12)CS(=O)(=O)C(C)(C)C)C(C)C`, the EC50 in assay [1] (Homo sapiens) is above 10000 nM. 85 nM corresponded to half-maximal inhibition in assay [2] (IC50).
`CC(C)[C@H](NC(=O)[C@H](Cc1cccc2ccccc12)CS(=O)(=O)C(C)(C)C)C(=O)NC(Cc1ccccc1)P(N)(=O)C(Cc1ccccc1)NC(=O)[C@@H](NC(=O)[C@H](Cc1cccc2ccccc12)CS(=O)(=O)C(C)(C)C)C(C)C` (single isomer, unassigned) gave an EC50 in assay [1] above 10000 nM. The same compound registered an IC50 in assay [2] of 250 nM.
In the case of `CC(C)[C@H](NC(=O)[C@H](Cc1cccc2ccccc12)CS(=O)(=O)C(C)(C)C)C(=O)NCP(=O)(O)CNC(=O)[C@@H](NC(=O)[C@H](Cc1cccc2ccccc12)CS(=O)(=O)C(C)(C)C)C(C)C`, the EC50 in assay [1] (Homo sapiens) is above 10000 nM. In assay [2], the IC50 came to 1.1 nM.
The corresponding values for `CC(C)[C@H](NC(=O)[C@H](Cc1cccc2ccccc12)CS(=O)(=O)C(C)(C)C)C(=O)NCP(N)(=O)CNC(=O)[C@@H](NC(=O)[C@H](Cc1cccc2ccccc12)CS(=O)(=O)C(C)(C)C)C(C)C` are above 10000 nM and 5.5 nM.
With `CC(C)[C@H](NC(=O)[C@H](Cc1cccc2ccccc12)CS(=O)(=O)C(C)(C)C)C(=O)N[C@H](Cc1ccccc1)P(N)(=O)[C@@H](Cc1ccccc1)NC(=O)[C@@H](NC(=O)[C@H](Cc1cccc2ccccc12)CS(=O)(=O)C(C)(C)C)C(C)C`, a half-maximal response in assay [1] (EC50) required 100 nM. Moreover, the IC50 in assay [2] came to 1 nM.
For the compound `CC(C)[C@H](NC(=O)[C@H](Cc1cccc2ccccc12)CS(=O)(=O)C(C)(C)C)C(=O)NC(Cc1ccccc1)P(=O)(O)C(Cc1ccccc1)NC(=O)[C@@H](NC(=O)[C@H](Cc1cccc2ccccc12)CS(=O)(=O)C(C)(C)C)C(C)C` (single isomer, unassigned), the EC50 in assay [3] is above 10000 nM. In addition, the IC50 in assay [2] stood at 0.5 nM.
In turn, `CC(C)[C@H](NC(=O)[C@H](Cc1cccc2ccccc12)CS(=O)(=O)C(C)(C)C)C(=O)NCP(=O)(CNC(=O)[C@@H](NC(=O)[C@H](Cc1cccc2ccccc12)CS(=O)(=O)C(C)(C)C)C(C)C)NN` had an EC50 in assay [1] (Homo sapiens) above 10000 nM. In assay [2], this compound came in with an IC50 of 8.5 nM.
